According to patent US9149480B2, “Use of meloxicam for the long-term treatment of musculoskeletal disorders in cats” (Boehringer Ingeleheim Vetmedica GmbH, priority 2010, dated 2015):

System: cats
Test: Retrospective study of long-term meloxicam treatment in aged cats with osteoarthritis: progression of renal disease versus matched untreated controls
Type: in vivo, cat
Settings: for progression of renal disease: maintenance dose of 0.02 mg/kg; for progression of renal parameters: median maintenance dose 0.02 mg/kg daily; for loss of urine concentrating ability / weight loss: time adjusted AUC change from baseline, Wilcoxon rank-sum-test
Text: The medical records of a feline-only practice were searched for cats with OA being treated with meloxicam during a 4 year period. A diagnosis of OA was based upon any two of the following: owner noted mobility changes and/or physical examination findings or radiographic changes. Cats included were older than 7 years and treated with meloxicam for a duration of more than 6 months. Complete medical records were available for review. Biochemistry, urinalysis and body weight were regularly monitored. The progression of renal disease in the aged non-renal and renal group treated was compared to age matched and IRIS matched untreated controls from the same clinic.
The database of a feline-only practice in suburban Melbourne was searched for cats which had been treated for chronic musculoskeletal disorders with meloxicam (Metacam oral suspension, Boehringer Ingelheim) during a 4 year period. The diagnosis of osteoarthritis or spondylosis deformans had been made based upon any two of the following: owner noted mobility changes, physical examination findings or radiographic changes. The inclusion criteria included cats greater than 7 years old which had been treated continuously with meloxicam for a duration of more than 6 months and which had complete medical records available for review. In addition, cats were only included if serum biochemistry, urine analysis and body weight had been regularly monitored.
Young cats were excluded, as were cats with no pre-treatment renal parameter measurements. In addition cats were also excluded if the owner could not be contacted to check that the cats were still receiving daily treatment with meloxicam.
Age, breed, sex, concomitant diseases and medications as well as date treatment commenced, treatment duration and daily dose of meloxicam were recorded.
The presence or absence of pre-treatment renal disease and staging of the renal disease was carried out using plasma creatinine and urine specific gravity according to the following recognised International Renal Interest Society criteria (IRIS staging 2006):
The treated cats were then subdivided into two groups: the renal treated group that belonged to IRIS stage 1-3 and were pre-treated, and the non-renal treated group that has no identifiable renal disease pre-treatment. Urine specific gravity, serum creatinine and bodyweight were used as indicators of renal disease progression. The progression of renal disease was then compared to age and IRIS matched untreated controls were then randomly identified from the database of the same clinic.
The median age of the renal and non-renal treated cats, median treatment duration and median maintenance dose was calculated.
The progression of renal disease in the non-renal treated group was compared to the age matched untreated controls. The progression of renal disease in the treated renal-diseased group was compared to age matched and IRIS matched untreated controls from the same clinic. Statistical analysis was carried out using a time adjusted area-under-the-curve (AUC) changes from baseline time 0 until the last recorded value (n).
The Wilcoxon rank-sum-test was used to compare the groups. With this nonparametric test the distribution of the adjusted AUC of two groups was compared regarding the location. Under the null hypothesis it is assumed that there is no location shift in the distributions of the two treatment groups. If the resulting p-value is lower than the two-sided significance level of 5% the null hypothesis is rejected.

[1] = non-renal group treated with meloxicam vs non-renal group not treated
[2] = renal group treated with meloxicam vs age and IRIS matched untreated renal group

Cc1cnc(NC(=O)C2=C(O)c3ccccc3S(=O)(=O)N2C)s1 [meloxicam]
progression of renal disease (aged cats with pre-existent stable IRIS stage 1-3 renal disease): does not hasten progression of renal disease
progression of renal disease (aged cats): does not hasten progression of renal disease
median maintenance dose after dose titration to the lowest effective dose (daily, oral suspension, both the renal treated and non-renal treated groups): 0.02 mg/kg
progression of renal parameters (non-renal group treated with meloxicam vs non-renal group not treated, median treatment duration 400 days): no differences
loss of urine concentrating ability [1]: no statistically significant differences
weight loss [1]: no statistically significant differences
progression of renal parameters (renal group (IRIS stage 1-3) treated with meloxicam vs age and IRIS matched untreated renal group, median treatment duration 527 days): no differences
loss of urine concentrating ability [2]: no statistically significant differences
weight loss [2]: no statistically significant differences
mean serum creatinine concentration increase over time (renal group treated with meloxicam vs renal untreated group): increased statistically significantly less
